Drawing on patent publication US11725000B2, “Apoptosis inhibitors” (National Institute of Biological Sciences, Beijing, priority 2017, dated 2023), this text covers EC50 for 31 compounds.

SMILES strings stand for the structures.

As usually defined, the EC50 is the concentration giving half of the maximal effect.

The test system of the first experiment is U2OS_Bim cells. Description: Apoptosis inhibition assay (Bim-induced apoptosis, cell viability by ATP level). The format is cell-based. Conditions: U2OS_Bim cells; estimated (*Est.) / preliminary results; numbering of Tables 4a/4b; read-out: EC50. The gist of the method:
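Apoptosis was triggered by doxycycline (0.1 μg/mL) induction of Bim, one hour after compound addition to U2OS_Bim cells. Survival was measured after 24 h from cellular ATP (CellTiter-Glo), relative to DMSO, with zVAD at 20 μM as rescue control. Data are duplicate means, some estimated from preliminary results.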
On to `Cc1cc(-c2cc(F)c(=O)n(Cc3ccc4c(c3)OCO4)c2)nc(S(=O)(=O)CCC(OCc2ccncc2)c2ccccc2)n1` (stereo not shown) [Compound 401], for which the EC50 was 0.001 to 1 µM.

`Cc1cc(-c2cc(F)c(=O)n(Cc3ccc4c(c3)OCO4)c2)nc(S(=O)(=O)CCC(OCC2CN(C)C2)c2ccccc2)n1` (stereo not shown) [Compound 416]: the EC50 was 0.001 to 1 µM. The same measure, in the same setting: as for `Cc1cc(-c2cc(F)c(=O)n(Cc3ccc4c(c3)OCO4)c2)nc(S(=O)(=O)CCC(OCc2ccccc2F)c2cccn2C)n1` (stereo not shown) [Compound 386], the figure is 0.001 to 1 µM. In the case of `Cc1cc(-c2cc(F)c(=O)n(Cc3ccc4c(c3)OCO4)c2)nc(S(=O)(=O)CCCN(c2ccccc2)C2CC2)n1` [Compound 378], the EC50 was 0.001 to 1 µM.

As for `Cc1cc(-c2cc(F)c(=O)n(Cc3ccc4c(c3)OCO4)c2)nc(S(=O)(=O)CCC(OCC2CCNC2)c2ccccc2)n1` (stereo not shown) [Compound 413], the EC50 was 0.001 to 1 µM.

Turning to `Cc1cc(-c2cc(F)c(=O)n(Cc3ccc4c(c3)NCCO4)c2)nc(S(=O)(=O)CCC(OCc2ccccc2F)c2ccccc2)n1` (stereo not shown) [Compound 359], the EC50 was 0.001 to 1 µM.

As to `Cc1cc(-c2cc(F)c(=O)n(Cc3ccc4c(c3)N(C)CCN4C)c2)nc(S(=O)(=O)CCC(OCc2ccccc2F)c2ccccc2)n1` (stereo not shown) [Compound 347], the EC50 is 0.001 to 1 µM.

Staying with this experiment, now noted: U2OS_Bim cells; estimated based on preliminary results; numbering of Tables 4a/4b; read-out: EC50.
Consider `COc1ccc(Cn2cc(-c3cc(-c4ncco4)nc([S+](C)[O-])n3)ccc2=O)cc1OC` (stereo not shown) [Compound 210], for which the EC50 is under 10 µM. Still for that read-out and setting: as for `COc1ccc(Cn2cc(-c3cc(C(F)(F)F)nc([S+]([O-])CN4CCCCC4)n3)ccc2=O)cc1OC` (stereo not shown) [Compound 197], the figure is under 10 µM; as for `CS(=O)(=O)c1nc(-c2ccc(=O)n(Cc3ccc4cccnc4c3)c2)cc(C(F)(F)F)n1` [Compound 252], under 10 µM. As to `CNc1ccc(Cn2cc(-c3cc(C(F)(F)F)nc([S+](C)[O-])n3)ccc2=O)cc1OC` (stereo not shown) [Compound 237], the EC50 was under 10 µM. As to `COc1ccc(Cn2cc(-c3cc(C(=O)c4ccccc4)nc(S(C)(=O)=O)n3)ccc2=O)cc1OC` [Compound 271, 5-(6-benzoyl-2-(methylsulfonyl)pyrimidin-4-yl)-1-(3,4-dimethoxybenzyl)pyridin-2 (1H)-one], the EC50 was under 10 µM. The same measure, in the same setting: next, `CS(=O)(=O)c1nc(-c2ccc(=O)n(Cc3ccc4[nH]cnc4c3)c2)cc(C(F)(F)F)n1` [Compound 228]: under 10 µM; `C[S+]([O-])c1nc(-c2ccc(=O)n(Cc3ccc4c(c3)NCCN4)c2)cc(C(F)(F)F)n1` (stereo not shown) [Compound 235]: under 10 µM; `COc1ccc(Cn2cc(-c3cc(CF)nc([S+](C)[O-])n3)ccc2=O)cc1OC` (stereo not shown) [Compound 203, 1-(3,4-dimethoxybenzyl)-5-(6-(fluoromethyl)-2-(methylsulfinyl)pyrimidin-4-yl)pyridin-2 (1H)-one]: under 10 µM. The same measure, in the same setting: as for `CS(=O)(=O)c1nc(-c2ccc(=O)n(Cc3ccc4nccnc4c3)c2)cc(C(F)(F)F)n1` [Compound 244], the figure is under 10 µM; as for `COc1ccc(Cn2cc(-c3cc(C(F)(F)F)nc(S(=O)(=O)Cc4cccnc4)n3)ccc2=O)cc1OC` [Compound 188], under 10 µM.

The experiment is the same for the next values; noted with them: U2OS_Bim cells; means of duplicates; numbering of Tables 4a/4b; read-out: EC50.
As to `Cc1cc(-c2cc(F)c(=O)n(CC3CCCCC3)c2)nc([S+]([O-])CCC(OCc2ccc(F)cc2F)c2ccccc2)n1` (stereo not shown) [Compound 308, 1-(cyclohexylmethyl)-5-(2-(3-(2,4-difluorobenzyloxy)-3-phenylpropylsulfinyl)-6-methylpyrimidin-4-yl)-3-fluoropyridin-2 (1H)-one], the EC50 is under 100 µM. Still for that read-out and setting: as for `CS(=O)(=O)c1nc(-c2cc[nH]c2)cc(C(F)(F)F)n1` [Compound 87, 2-(methylsulfonyl)-4-(1H-pyrrol-3-yl)-6-(trifluoromethyl)pyrimidine], the figure is under 100 µM; as for `COc1ccc(Cn2cc(-c3cc(C(F)(F)F)nc([S+]([O-])CCC(OCc4ccccc4)c4ccccc4)n3)ccc2=O)cc1OC` (stereo not shown) [Compound 280, 5-(2-((3-(benzyloxy)-3-phenylpropyl)sulfinyl)-6-(trifluoromethyl)pyrimidin-4-yl)-1-(3,4-dimethoxybenzyl)pyridin-2 (1H)-one], 0.001 to 1 µM; as for `COc1ccc(Cn2cc(-c3cc(C(F)(F)F)nc(S(=O)(=O)CCC(=O)N4CCCC4)n3)ccc2=O)cc1OC` [Compound 150, 1-(3,4-dimethoxybenzyl)-5-(2-((3-oxo-3-(pyrrolidin-1-yl)propyl)sulfonyl)-6-(trifluoromethyl)pyrimidin-4-yl)pyridin-2 (1H)-one], 0.001 to 1 µM.

Regarding `CS(=O)(=O)c1nc(-c2ccc(=O)n(Cc3ccc(Cl)cc3)c2)cc(C(F)(F)F)n1` [Compound 106, 1-(4-chlorobenzyl)-5-(2-(methylsulfonyl)-6-(trifluoromethyl)pyrimidin-4-yl)pyridin-2 (1H)-one], the EC50 lay within 0.001 to 1 µM.

Consider `CNC(=O)CCC[S+]([O-])c1nc(-c2ccc(=O)n(Cc3ccc(OC)c(OC)c3)c2)cc(C(F)F)n1` (stereo not shown) [Compound 177, 4-((4-(difluoromethyl)-6-(1-(3,4-dimethoxybenzyl)-6-oxo-1,6-dihydropyridin-3-yl)pyrimidin-2-yl)sulfinyl)-N-methylbutanamide], for which the EC50 is under 100 µM. Still for that read-out and setting: next, `COc1cccc([S+]([O-])c2nc(-c3ccc(=O)n(Cc4ccc(OC)c(OC)c4)c3)cc(C(F)F)n2)c1` (stereo not shown) [Compound 175, 5-(6-(difluoromethyl)-2-((3-methoxyphenyl)sulfinyl)pyrimidin-4-yl)-1-(3,4-dimethoxybenzyl)pyridin-2 (1H)-one]: 0.001 to 1 µM; `COc1ccc(Cn2cc(-c3nc(S(=O)(=O)CCC(OCc4ccccc4F)c4ccccc4)nc4sccc34)cc(F)c2=O)cc1F` (stereo not shown) [Compound 302, 3-fluoro-1-(3-fluoro-4-methoxybenzyl)-5-(2-(3-(2-fluorobenzyloxy)-3-phenylpropylsulfonyl)thieno[2,3-d]pyrimidin-4-yl)pyridin-2 (1H)-one]: 0.001 to 1 µM; `CS(=O)(=O)c1nc(-c2cccs2)cc(N2CCOCC2)n1` [Compound 40, 4-(2-(methylsulfonyl)-6-(thiophen-2-yl)pyrimidin-4-yl)morpholine]: under 100 µM.

On to `CCCCCCNC(=O)CCCS(=O)(=O)c1nc(-c2ccc(=O)n(Cc3ccc(OC)c(OC)c3)c2)cc(C(F)F)n1` [Compound 183, 4-((4-(difluoromethyl)-6-(1-(3,4-dimethoxybenzyl)-6-oxo-1,6-dihydropyridin-3-yl)pyrimidin-2-yl)sulfonyl)-N-hexylbutanamide], for which the EC50 is 0.001 to 1 µM.

For `CS(=O)(=O)c1nc(-c2ccc[nH]c2=O)cc(C(F)(F)F)n1` [Compound 80, 3-(2-(methylsulfonyl)-6-(trifluoromethyl)pyrimidin-4-yl)pyridin-2 (1H)-one], the EC50 was under 100 µM.

As to `COC(=O)c1cccc(-c2cc(C(F)(F)F)nc(S(C)(=O)=O)n2)c1` [Compound 60, methyl 3-(2-(methylsulfonyl)-6-(trifluoromethyl)pyrimidin-4-yl)benzoate], the EC50 is under 100 µM.

On to `COCCOCCS(=O)(=O)c1nc(-c2ccc(=O)n(Cc3ccc(OC)c(OC)c3)c2)cc(C(F)(F)F)n1` [Compound 145], for which the EC50 was in the range of 0.001 to 1 µM. On the same count and under the same terms, next, `Cc1cc(-c2cc(F)c(=O)n(Cc3ccc4c(c3)OCCO4)c2)nc(S(=O)(=O)CCC(OCc2ccccc2F)c2ccccc2)n1` (stereo not shown) [Compound 331, 1-((2,3-dihydrobenzo[b][1,4]dioxin-6-yl)methyl)-3-fluoro-5-(2-(3-(2-fluorobenzyloxy)-3-phenylpropylsulfonyl)-6-methylpyrimidin-4-yl)pyridin-2 (1H)-one]: 0.001 to 1 µM.
